{"source": "patent US20160177395A1", "about": "“BIOMARKERS FOR THE PREDICTION OF RENAL INJURY” (priority 2007, published 2016)", "key": {"[1]": {"test_system": "kidney tissues of treated or untreated rats", "assay": "Real-time qRT-PCR of marker transcripts in kidney tissue panel, discovery stage (Table 22)", "format": "in vivo, rat", "conditions": "rat kidney, listed as Dox", "experimental": "Before RT preparation the RNA was treated with DNA-free (Ambion, cat. No. AM1906) DNase treatment and removal—according to manufacturer protocol. DNase procedure was repeated until no DNA is detected in a PCR reaction using the RNA samples.\nThe mixture is then incubated for 5 min at 65° C. and then quickly chilled on ice. Thereafter, 20 μl of 5× SuperscriptII first strand buffer (Invitrogen, Cat. No. Y00146), 9.6 μl 0.1M DTT (Invitrogen, Cat. No. Y00147) and 160 units RNasin (Promega, Cat. No. N251A) are added, and the mixture is incubated for 10 min at 25° C., followed by further incubation at 42° C. for 2 min. […] The resulting cDNA is diluted 1:20 in TE buffer (10 mM Tris pH=8, 1 mM EDTA pH=8).\ncDNA (5 μl), prepared as described above, is used as a template in Real-Time PCR reactions using the SYBR Green I assay (PE Applied Biosystem) with specific primers in 100 nM concentration if not indicated otherwise and UNG Enzyme (Eurogentech or equal) Amplification is effected as follows: 50° C. for 2 min, 95° C. for 10 min, and then 40 cycles of 95° C. for 15 sec, followed by 60° C. for 1 min (if not indicated otherwise). Amplification step is followed by dissociation step. Detection is performed by using the PE Applied Biosystem SDS 7000. The cycle in which the reactions achieved a threshold level (Ct) of fluorescence is registered and is used to calculate the relative transcript quantity in the RT reactions. Non-detected samples are assigned Ct value of 41 and are calculated accordingly. The relative quantity is calculated using the equation Q=efficiencŷ-Ct. The efficiency of the PCR reaction is calculated from a standard curve, created by using serial dilutions of several reverse transcription (RT) reactions. To minimize inherent differences in the RT reaction, the resulting relative quantities are normalized to normalization factor calculated as follows: […]\nThe relative quantity (Q) of each housekeeping gene in each sample is calculated as described above. In order to calculate the “relative Q relative to MED” each Q for each HSKP gene is divided by the median quantity of this gene in all panel samples. To finally achieve the normalization factor of each sample the geometric mean of all four “relative Q relative to MED” was calculated. The normalization factor was then used for further calculations.\nThe markers of the present invention were tested with regard to their expression in a panel of kidney tissues samples from treated and control rats. Unless otherwise noted, all experimental data relates to the novel polynucleotides and proteins of the present invention, named according to the segment being tested (as expression was tested through RT-PCR as described). Tests were then performed as described in the “Materials and Experimental Procedures” section above.\nThe qRT-PCR measurements were normalized according to each samples normalization factor as described in “RT Preparation and Real-Time qRT-PCR Analysis” and further multiplied by a constant factor for ease of viewing."}, "[2]": {"test_system": "kidney tissues of treated or untreated rats", "assay": "Real-time qRT-PCR of signature amplicons, validation stage, labeled and un-labeled samples (Table 23)", "conditions": "for H31883_DB71_seg13 normalized qRT-PCR result / MUSCYCG1R_DB81_seg19-20 normalized qRT-PCR result / W41270_DB81_seg11 normalized qRT-PCR result: labeled sample, one line per animal", "from_the_text": "New primers were designed for part of the transcripts, and new conditions for several qRT-PCR reactions were used, as described below.\nThe measurements were normalized in two steps. First—according to the house-keeping-genes normalization factor, and second—each plate was normalized according to ratio of the intensity measurements from samples appearing in it and in the shuffled (normalization) plate (Table 25 provides the plates details and the section “Inter-Plate Normalization” provides details of the normalization process). The normalized values were further scaled by a factor, for ease of viewing.\nRT was prepared and qRT-PCR performed and analyzed as described hereinabove. qRT-PCR was performed for the four genes comprising the signature of the discovery stage described in Table 13. Two amplicons were tested for each gene—one representing the wild-type transcript, and another representing an alternative splice variant. Each amplicon was measured using the labeled samples described in Table 9 herein, as well as the un-labeled samples. Samples from both groups (labeled and un-labeled) were tested in seven 96 well plates as described in Table 25. In order to correct possible run to run variations, the following controls were added: 1. several samples were repeated in all 96 wells plates; 2. control shuffled plate was designed which combined samples from all seven test plates.\nTo account for possible differences of qRT-PCR measurements between the different plates due to experimental artifacts, a normalization plate was planned. This plate, designated hereinabove ‘shuffled plate’, contained samples from all other plates. Real Time PCR was performed on this plate using the primers appropriate for all candidates in tables 26 and 27. For each other plate (plates 1-7 above) and each amplicon, the samples appearing also in the shuffled plate were examined—the ratio between the transcript abundance as measured in the plate to the abundance as measured in the shuffled plate was calculated, outliers were manually removed, and the geometric mean of the left ratios was taken as an additional multiplicative normalization factor for the plate and amplicon."}, "[3]": {"conditions": "day28, individual animals (F and M)"}, "[4]": {"conditions": "day1, female rat kidney, listed as Dox"}, "[5]": {"conditions": "day1, male rat kidney, listed as Dox"}, "[6]": {"conditions": "day28, female rat kidney, listed as Dox"}, "[7]": {"conditions": "day28, male rat kidney, listed as Dox"}, "[8]": {"conditions": "labeled samples, day1, kidney of individual male/female rats, listed as Dox"}, "[9]": {"conditions": "labeled samples, day5, kidney of individual male/female rats, listed as Dox"}, "[10]": {"conditions": "labeled samples, day28, kidney of individual male/female rats, listed as Dox"}}, "note": "Several values for one entry are separate records, joined by “and”; a condition that tells them apart may be missing. Equal values may be shown once.", "data": [{"compound": "COc1cccc2c1C(=O)c1c(O)c3c(c(O)c1C2=O)C[C@@](O)(C(=O)CO)C[C@@H]3O[C@H]1C[C@H](N)[C@H](O)[C@H](C)O1", "note": "[Doxorubicin]", "values": [{"measurement": "RATRAB13X_DB71_seg11-13 normalized Real Time PCR", "setting": "[1]; [3]", "value": "0.74 and 0.95 and 1.05 and 0.91 and 0.77 and 0.84"}, {"measurement": "RNU24174_DB71_seg8 normalized Real Time PCR", "setting": "[1]; [3]", "value": "1.99 and 2.06 and 4.39 and 3.5 and 2.2 and 2.91"}, {"measurement": "W41270_DB81_seg11 normalized Real Time PCR", "setting": "[1]; [3]", "value": "0.84 and 0.44 and 0.77 and 1.64 and 0.54 and 0.5"}, {"measurement": "W64472_DB81_seg2 normalized Real Time PCR", "setting": "[1]; [3]", "value": "0.8 and 0.69 and 1.73 and 1.71 and 0.83 and 1.15"}, {"measurement": "W83813_DB81_seg27 normalized Real Time PCR", "setting": "[1]; [3]", "value": "0.58 and 0.61 and 0.63 and 0.51 (2×) and 0.55"}, {"measurement": "AA686189_DB71_seg6 normalized Real Time PCR expression", "setting": "[1]; day28, individual animals", "value": "1.5 and 0.62 and 0.04 and 6.37 and 0.92 and 1.28"}, {"measurement": "AI045075_DB71_seg6 normalized Real Time PCR expression", "setting": "[1]; day28, individual animals", "value": "0.66 and 0.82 and 1.6 and 1.49 and 0.9 and 0.87"}, {"measurement": "AI454051_DB71_seg0 normalized Real Time PCR expression", "setting": "[1]; day28, individual animals", "value": "0.85 and 0.92 and 0.87 and 0.96 and 1.11 and 0.72"}, {"measurement": "H31045_DB71_seg5 normalized Real Time PCR expression", "setting": "[1]; day28, individual animals", "value": "2.16 and 2.58 and 0.51 and 1.57 and 2.33 and 2.12"}, {"measurement": "H31883_DB71_seg13 normalized qRT-PCR result", "setting": "[2]; [4]", "value": "2.054 and 1.752 and 1.003"}, {"measurement": "MUSCYCG1R_DB81_seg19-20 normalized qRT-PCR result", "setting": "[2]; [4]", "value": "1.631 and 1.268 and 0.741"}, {"measurement": "W41270_DB81_seg11 normalized qRT-PCR result", "setting": "[2]; [4]", "value": "1.548 and 1.367 and 0.977"}, {"measurement": "H31883_DB71_seg13 normalized qRT-PCR result", "setting": "[2]; [5]", "value": "0.956 and 0.936 and 0.964"}, {"measurement": "MUSCYCG1R_DB81_seg19-20 normalized qRT-PCR result", "setting": "[2]; [5]", "value": "1.257 and 1.622 and 1.454"}, {"measurement": "W41270_DB81_seg11 normalized qRT-PCR result", "setting": "[2]; [5]", "value": "1.26 and 2.478 and 1.45"}, {"measurement": "H31883_DB71_seg13 normalized qRT-PCR result", "setting": "[2]; [6]", "value": "0.734 and 0.719 and 0.955"}, {"measurement": "MUSCYCG1R_DB81_seg19-20 normalized qRT-PCR result", "setting": "[2]; [6]", "value": "0.964 and 0.653 and 0.54"}, {"measurement": "W41270_DB81_seg11 normalized qRT-PCR result", "setting": "[2]; [6]", "value": "2.157 and 1.462 and 1.023"}, {"measurement": "H31883_DB71_seg13 normalized qRT-PCR result", "setting": "[2]; [7]", "value": "0.686 and 0.442 and 0.586"}, {"measurement": "MUSCYCG1R_DB81_seg19-20 normalized qRT-PCR result", "setting": "[2]; [7]", "value": "0.669 and 1.434 and 0.785"}, {"measurement": "W41270_DB81_seg11 normalized qRT-PCR result", "setting": "[2]; [7]", "value": "1.613 and 3.226 and 1.604"}, {"measurement": "H31883_DB71_seg13 normalized qRT-PCR expression (Cyclin-G1 (CCNG1) transcript)", "setting": "[2]; [8]", "value": "0.993 and 1.283 and 1.41 and 1.46 and 1.116"}, {"measurement": "MUSCYCG1R_DB81_seg19-20 normalized qRT-PCR expression", "setting": "[2]; [8]", "value": "1.387 and 1.761 and 2.256 and 1.516 and 1.627 and 1.551"}, {"measurement": "W41270_DB81_seg11 normalized qRT-PCR expression (tumor necrosis factor receptor superfamily, member 12a transcript)", "setting": "[2]; [8]", "value": "0.824 and 1.286 and 1.43 and 1.148 and 1.501 and 0.935"}, {"measurement": "AI045075_DB71_seg6 normalized qRT-PCR expression (Interferon stimulated exonuclease 20 (ISG20) transcript)", "setting": "[2]; [9]", "value": "1.248 and 1.348 and 1.319 and 1.844"}, {"measurement": "H31883_DB71_seg13 normalized qRT-PCR expression (Cyclin-G1 (CCNG1) transcript)", "setting": "[2]; [9]", "value": "2.129 and 0.905 and 2.586 and 1.227 and 1.377"}, {"measurement": "MUSCYCG1R_DB81_seg19-20 normalized qRT-PCR expression", "setting": "[2]; [9]", "value": "1.321 and 1.723 and 1.536 and 2.913 and 1.438"}, {"measurement": "W41270_DB81_seg11 normalized qRT-PCR expression (tumor necrosis factor receptor superfamily, member 12a transcript)", "setting": "[2]; [9]", "value": "1.017 and 1.053 and 1.551 and 1.791 and 0.851"}, {"measurement": "W64472_DB81_seg2 normalized qRT-PCR expression (Interferon stimulated exonuclease 20 (ISG20) transcript)", "setting": "[2]; [9]", "value": "2.03 and 2.924 and 1.441 and 3.4 and 2.561"}, {"measurement": "H31883_DB71_seg13 normalized qRT-PCR expression (Cyclin-G1 (CCNG1) transcript)", "setting": "[2]; [10]", "value": "1.328 and 1.54 and 1.434 and 1.642 and 1.611 and 1.408"}, {"measurement": "MUSCYCG1R_DB81_seg19-20 normalized qRT-PCR expression", "setting": "[2]; [10]", "value": "0.985 and 2.342 and 1.437 and 1.991 and 2.105 and 1.779"}, {"measurement": "W41270_DB81_seg11 normalized qRT-PCR expression (tumor necrosis factor receptor superfamily, member 12a transcript)", "setting": "[2]; [10]", "value": "1.263 and 0.73 and 2.381 and 1.44 and 0.652 and 0.787"}, {"measurement": "Label: true label (Normal/Toxic), known renal toxic effect", "setting": "[2]; rat, in vivo", "value": "Toxic"}]}]}
